In this assay the test system is β-catenin-TCF-mediated reporter transcription activity in Colo 205 cells. The assay is described as follows: Colo 205 reporter assay (TCF/LEF luciferase). The assay is classed as cell-based. The conditions noted are these: Colo 205 TCF/LEF luciferase reporter, five hours after addition of compound, read-out: TCF reporter Colo205 IC50. An excerpt:
The compounds of the invention described herein were screened using the assay procedure for β-catenin-TCF-mediated reporter transcription activity described below.
Reporter cell lines were generated by stably transfecting cells of cancer cell lines (e.g., colon cancer) with a plasmid reporter construct (From SABiosciences, a QIAGEN company) that includes TCF/LEF promoter driving expression of the firefly luciferase gene. TCF/LEF reporter constructs were made in which TCF/LEF promoter, a promoter with optimal number of TCF/LEF binding sites designed by SABiosceinces, was linked upstream of the firefly luciferase gene. This construct could also include a puromycin resistance gene as a selectable marker. This construct could also be used to stably transfect Colo 205 cells, a colon cancer cell line having a mutated APC gene that causes a constitutively active β-catenin. A control cell line was generated using another plasmid construct containing the luciferase gene under the control of a CMV basal promoter which is not activated by p-catenin.
Colo 205 Cultured cells with a stably transfected reporter construct were plated at approximately 10,000 cells per well into 384 well multi-well plates for twenty four hours. The testing compounds were then added to the wells in 2-fold serial dilutions using a twenty micromolar top concentration. A series of control wells for each cell type received only compound solvent. Five hours after the addition of compound, reporter activity for luciferase was assayed, by addition of the SteadyGlo luminescence reagent (Promega). The reporter luminescence activity was measured using Pherastar plate reader (BMG Labtech). Readings were normalized to DMSO only treated cells, and normalized activities were then used in the IC50 calculations. The Colo 205 reporter assay data are summarized in Table 45: A<0.3 μM; 0.3 μM≤B<1.0 μM; 1.0 μM≤C<5.0 μM; D≥5.0 μM
Colo 205 reporter assay data has also been obtained for certain R-isomers of Formula (I) wherein R^4 is —H or -D, and wherein the carbon to which R^3 and R^4 are attached (C2 carbon of Formula (X)) has R stereochemistry; such epimeric compounds are represented using the suffix “B” attached to the Compound described herein having the S stereochemistry at the carbon to which R^3 and R^4 are attached: […]

Usually IC50 stands for the concentration that gives 50% inhibition.

Like-named read-outs stand apart in the source and are kept apart here.

Turning to `Cc1nc(N[C@H]2CC[C@@H](Oc3cc(F)c(F)c(F)c3)C2)nc2c1NC(=O)[C@H](C)N2C` (mixture of isomers) [Compound 259, (7S)-4,7,8-trimethyl-2-((cis-3-(3,4,5-trifluorophenoxy)cyclopentyl)amino)-7,8-dihydropteridin-6(5H)-one], for the setting “Homo sapiens, COLO 205, 5 h”, the IC50 is at least 5000 nM.
On the same count and under the same terms, as for `Cc1nc(N[C@H]2CC[C@H](Oc3cc(F)c(F)c(F)c3)C2)nc2c1NC(=O)[C@H](C)N2C` (mixture of isomers) [Compound 260, (7S)-4,7,8-trimethyl-2-((trans-3-(3,4,5-trifluorophenoxy)cyclopentyl)amino)-7,8-dihydropteridin-6(5H)-one], the figure is 300 to 1000 nM.
Consider `Cc1nc(N[C@@H]2COC[C@H]2Oc2ccc(F)cc2)nc2c1NC(=O)[C@H](C)N2C` (mixture of isomers) [Compound 297, (7S)-2-((trans-4-(4-fluorophenoxy)tetrahydrofuran-3-yl)amino)-4,7,8-trimethyl-7,8-dihydropteridin-6(5H)-one], for which the IC50 (Homo sapiens, COLO 205, 5 h) was at least 5000 nM.
As for `Cc1nc(N[C@@H]2CC[C@H](NC(=O)c3cc(F)c(F)c(F)c3)C2)nc2c1NC(=O)[C@H](C)N2C` (mixture of isomers) [Compound 298, 3,4,5-trifluoro-N-(cis-3-(((S)-4,7,8-trimethyl-6-oxo-5,6,7,8-tetrahydropteridin-2-yl)amino)cyclopentyl)benzamide], the IC50 (Homo sapiens, COLO 205, 5 h) was in the range of 1000 to 5000 nM.
With `Cc1nc(N[C@H]2C[C@H](Oc3ccc(F)cc3F)C2)nc2c1NC(=O)[C@H](C)N2C` (relative stereo) [Compound 295, (7S)-4,7,8-trimethyl-2-((trans-3-(2,4-drifluorophenoxy)cyclobutyl)amino)-7,8-dihydropteridin-6(5H)-one], the IC50 was below 300 nM.
Regarding `COC1(C2C(=O)Nc3c(C)nc(N[C@H]4C[C@H](Oc5cc(F)c(F)c(F)c5)C4)nc3N2C)CCC1` (relative stereo) [Compound 667, 7-(1-methoxycyclobutyl)-4,8-dimethyl-2-((trans-3-(3,4,5-trifluorophenoxy)cyclobutyl)amino)-7,8-dihydropteridin-6(5H)-one], the IC50 (Homo sapiens, COLO 205, 5 h) is below 300 nM.
On to `COC1(C2C(=O)Nc3c(C)nc(N[C@H]4C[C@H](COc5ccc(C(F)(F)F)nc5)C4)nc3N2C)CCC1` (relative stereo) [Compound 669, 7-(1-methoxycyclobutyl)-4,8-dimethyl-2-((trans-3-(((6-(trifluoromethyl)pyridin-3-yl)oxy)methyl)cyclobutyl)amino)-7,8-dihydropteridin-6(5H)-one], for which the IC50 (Homo sapiens, COLO 205, 5 h) is below 300 nM.
Regarding `COC1(C2C(=O)Nc3c(C)nc(N[C@H]4C[C@H](Oc5ccc(C(F)(F)F)nc5)C4)nc3N2C)CCC1` (relative stereo) [Compound 671, 7-(1-methoxycyclobutyl)-4,8-dimethyl-2-((trans-3-((6-(trifluoromethyl)pyridin-3-yl)oxy)cyclobutyl)amino)-7,8-dihydropteridin-6(5H)-one], the IC50 (Homo sapiens, COLO 205, 5 h) is below 300 nM.
As to `COC1(C2C(=O)Nc3c(C)nc(N[C@H]4C[C@@H](Nc5cnc(C(F)(F)F)cn5)C4)nc3N2C)CCC1` (relative stereo) [Compound 672, 7-(1-methoxycyclobutyl)-4,8-dimethyl-2-((cis-3-((5-(trifluoromethyl)pyrazin-2-yl)amino)cyclobutyl)amino)-7,8-dihydropteridin-6(5H)-one], for the setting “Homo sapiens, COLO 205, 5 h”, the IC50 was below 300 nM.
Still for that read-out and setting: then `COC1(C2C(=O)Nc3c(C)nc(N[C@H]4C[C@@H](Cn5nccc5C(F)(F)F)C4)nc3N2C)CC1` (relative stereo) [Compound 676, 7-(1-methoxycyclopropyl)-4,8-dimethyl-2-((cis-3-((5-(trifluoromethyl)-1H-pyrazol-1-yl)methyl)cyclobutyl)amino)-7,8-dihydropteridin-6(5H)-one], with below 300 nM; and `Cc1nc(N[C@H]2C[C@@H](Nc3cnc(C(F)(F)F)cn3)C2)nc2c1NC(=O)C1(CCOC1)N2C` (relative stereo) [Compound 687, 4′,8′-dimethyl-2′-((cis-3-((5-(trifluoromethyl)pyrazin-2-yl)amino)cyclobutyl)amino)-4,5,5′,8′-tetrahydro-2H,6′H-spiro[furan-3,7′-pteridin]-6′-one], with 300 to 1000 nM; and `Cc1nc(N[C@H]2C[C@H](Cn3nccc3C(F)(F)F)C2)nc2c1NC(=O)C1(CCOC1)N2C` (relative stereo) [Compound 688, 4′,8′-dimethyl-2′-((trans-3-((5-(trifluoromethyl)-1H-pyrazol-1-yl)methyl)cyclobutyl)amino)-4,5,5′,8′-tetrahydro-2H,6′H-spiro[furan-3,7′-pteridin]-6′-one], with below 300 nM.
For `Cc1nc(N[C@H]2C[C@H](Oc3ccc(C(F)(F)F)nc3)C2)nc2c1NC(=O)C1(CCOC1)N2C` (relative stereo) [Compound 689, 4′,8′-dimethyl-2′-((trans-3-((6-(trifluoromethyl)pyridin-3-yl)oxy)cyclobutyl)amino)-4,5,5′,8′-tetrahydro-2H,6′H-spiro[furan-3,7′-pteridin]-6′-one], under “Homo sapiens, COLO 205, 5 h”, the IC50 fell in the range of 300 to 1000 nM.
For `Cc1nc(N[C@H]2C[C@@H](COc3ccc(C(F)(F)F)nc3)C2)nc2c1NC(=O)C1(CCOC1)N2C` (relative stereo) [Compound 697, 4′,8′-dimethyl-2′-((cis-3-(((6-(trifluoromethyl)pyridin-3-yl)oxy)methyl)cyclobutyl)amino)-4,5,5′,8′-tetrahydro-2H,6′H-spiro[furan-3,7′-pteridin]-6′-one], the IC50 (Homo sapiens, COLO 205, 5 h) lay in the range of 300 to 1000 nM.
In the case of `COCC1(C)C(=O)Nc2c(C)nc(N[C@H]3C[C@H](Oc4cnc(C(F)(F)F)nc4)C3)nc2N1C` (relative stereo) [Compound 706, 7-(methoxymethyl)-4,7,8-trimethyl-2-((trans-3-((2-(trifluoromethyl)pyrimidin-5-yl)oxy)cyclobutyl)amino)-7,8-dihydropteridin-6(5H)-one], the IC50 was in the range of 300 to 1000 nM.
Same read-out and setting: as for `COCC1(C)C(=O)Nc2c(C)nc(N[C@H]3C[C@H](Oc4cnc(C(F)(F)F)nc4)C3)nc2N1C` (relative stereo) [Compound 710, 7-(methoxymethyl)-4,7,8-trimethyl-2-((trans-3-((2-(trifluoromethyl)pyrimidin-5-yl)oxy)cyclobutyl)amino)-7,8-dihydropteridin-6(5H)-one], the figure is 1000 to 5000 nM.
Turning to `COC1(C2C(=O)Nc3c(C)nc(N[C@H]4C[C@H](Oc5cnc(C(F)(F)F)nc5)C4)nc3N2C)CCC1` (relative stereo) [Compound 718, 7-(1-methoxycyclobutyl)-4,8-dimethyl-2-((trans-3-((2-(trifluoromethyl)pyrimidin-5-yl)oxy)cyclobutyl)amino)-7,8-dihydropteridin-6(5H)-one], the IC50 (Homo sapiens, COLO 205, 5 h) was below 300 nM.
As to `COCC1(C)C(=O)Nc2c(C)nc(N[C@H]3C[C@H](Oc4cc(F)c(F)c(F)c4)C3)nc2N1C` (relative stereo) [Compound 719, 7-(methoxymethyl)-4,7,8-trimethyl-2-((trans-3-(3,4,5-trifluorophenoxy)cyclobutyl)amino)-7,8-dihydropteridin-6(5H)-one], the IC50 (Homo sapiens, COLO 205, 5 h) is below 300 nM.
`COCC1(C)C(=O)Nc2c(C)nc(N[C@H]3C[C@H](Oc4cc(F)c(F)c(F)c4)C3)nc2N1C` (relative stereo) [Compound 720, 7-(methoxymethyl)-4,7,8-trimethyl-2-((trans-3-(3,4,5-trifluorophenoxy)cyclobutyl)amino)-7,8-dihydropteridin-6(5H)-one]: the IC50 was 300 to 1000 nM.

The values are drawn from patent publication US20230312587A1, “PTERIDINONE COMPOUNDS AND USES THEREOF” (Vertex Pharmaceutical Incorporated, priority 2018, published 2023).
